Patent publication US10179797B2, “Phosphinic peptide derivatives for use as MMP-12 inhibitors” (DSM IP ASSETS B.V., priority 2015, dated 2019)

Legend:
Human skin = experiment: Total dermal elastin after UV-irradiation of cultured human skin samples; conditions: concentration 100 [μm]; for Increase vs. untreated-UV: day 6, (Dermal elastin sample − Dermal Elastin UV)/Dermal Elastin UV * 100%; for Dermal elastin: topical twice a day, daily 45 J/cm^2 UVA, day 6, papillary dermis, non-UV treated sample = 100%
Experimental: Human skin from abdominal plastic surgery classified as “Intermediate” (ITA° angle=53°) has been used. The skin samples were cut in pieces of approx. 8×3 mm (ø×thickness) and cultured up to day 6 in an air-liquid interface in a perforated ring of stainless steel in contact with a culture medium (modified Williams'E medium), the culture medium was renewed every three days. Eight skin specimens were used for each treatment. Each test sample (4 μl) was topically applied twice a day, immediately after UV irradiation and renewed 4 hours later top of each piece after gentle cleaning of the surface with a cotton pad followed by covering with a 6 ømm delivery membrane, which procedure was repeated daily. The samples were irradiated daily with 800% of the Biological Effective Dose of daylight (BED; Del Bino et al, Pigment Cell research, 19, 2006) equal to a dose of 45 J/cm^2 UVA using an adopted BIO-SUN system (Vilber Lourmat). At day 6 twelve skin sections were immunostained with mouse monoclonal anti-Elastin antibody (Sigma cat#E4013). The papillary dermis is selected for the analysis. The evaluation has been performed by estimating both color intensity and distribution with IMAGE J (NIH) analysis software Two slides of each skin sample have been processed by image acquisition and related analysis (i.e. 12 images for each treatment). The score of the dermal Elastin of the non-UV treated sample was set to 100%.

MMP-12 [1] = target: T1, MMP-12 (Homo sapiens, UniProt P39900); experiment: MMP-12 Fluorometric Drug Discovery Kit inhibition assay; type: biochemical; parameters: purchased Enzo Life Sciences Inc., Farmingdale, N.Y., USA; conditions: read-out: % Inhibition after 20 min
From the text: The MMP-12 inhibitor activity was quantified by fluorometric analysis using the MMP-12 Fluorometric Drug Discovery Kit (Enzo Life Sciences Inc., Farmingdale, N.Y., USA) according to the manufacturers' instructions.
Target sequence in this assay (P39900 106-263 limits assumed): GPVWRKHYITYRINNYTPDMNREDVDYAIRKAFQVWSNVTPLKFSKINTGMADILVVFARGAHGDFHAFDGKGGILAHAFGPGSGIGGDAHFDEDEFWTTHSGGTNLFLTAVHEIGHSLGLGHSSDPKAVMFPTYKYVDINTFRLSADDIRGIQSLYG

MMP-12 [2] = target: T1, MMP-12; experiment: Inhibition of MMP-12 degradation of elastin fibers produced by human dermal fibroblasts; type: cell-based; conditions: MMP-12 200 U/ml, 2 hrs at 37° C.
Experimental: Human dermal fibroblasts were pre-cultured in DMEM, 10% FCS, 1% P/S for 48 hrs before starving them in DMEM, 0.2% FCS, 1% P/S for 24 hrs. To induce elastin fiber production TGFb1 (10 ng/ml) was added and incubated for 5 days. After incubation with TGFb1, medium was carefully discarded and cells were washed with assay buffer (HBSS, […] HEPES). In the meantime MMP-12 (200 U/ml) and compounds were mixed in assay buffer and allowed to interact for 30 min. This mixture was then added to the cells and incubated for 2 hrs at 37° C.
Cells were then fixed with ice-cold methanol for 5 min and rehydrated by PBS. Unspecific sites were blocked with 1% BSA in PBS for 1 h at room temperature. Elastin fibers were detected using a primary antibody against elastin and the first antibody was detected with AlexaFluor 488 conjugated secondary antibody. Finally, nuclei were counterstained with DAPI. Stained cells were analyzed with the Thermo Scientific ArrayScan XTI Live High Content Platform. 49 pictures per well were acquired with a 20× objective and as readout we used the area covered by the elastin fibers. % of inhibition of elastin fiber degradation was calculated the following way: % protection of elastin fiber network degradation=100−[(max area−min area)/(max area inhibitor area)*100] in which max area=area covered by elastin fibers of untreated control cells min area=area covered by elastin fibers of MMP12 treated cells inhibitor area=area covered by elastin fibers of MMP12 and inhibitor treated cells.
Target sequence in this assay (P39900 106-470, species assumed): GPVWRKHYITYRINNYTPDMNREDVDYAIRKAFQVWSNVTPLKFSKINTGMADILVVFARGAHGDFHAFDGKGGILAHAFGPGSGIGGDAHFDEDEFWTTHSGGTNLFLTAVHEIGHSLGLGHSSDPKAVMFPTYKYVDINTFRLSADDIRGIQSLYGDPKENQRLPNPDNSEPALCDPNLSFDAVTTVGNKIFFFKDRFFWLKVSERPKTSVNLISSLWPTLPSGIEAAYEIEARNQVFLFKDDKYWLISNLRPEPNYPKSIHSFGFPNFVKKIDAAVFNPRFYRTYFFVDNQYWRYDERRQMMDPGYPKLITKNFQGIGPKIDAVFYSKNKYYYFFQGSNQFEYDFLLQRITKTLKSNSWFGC

| SMILES | inhibition at 10 µM (MMP-12 [1]) [%] | inhibition at 0.5 µM (MMP-12 [1]) [%] | inhibition at 1 µM (MMP-12 [1]) [%] | also measured |
| --- | --- | --- | --- | --- |
| CC(NC(=O)C(Cc1ccc(-c2ccccc2)cc1)CP(=O)(O)CCc1ccccc1)C(=O)O (stereo not drawn) [(I)-m, (3-([1,1′-biphenyl]-4-yl)-2-((hydroxy(phenethyl)phosphoryl)methyl)propanoyl)alanine] | – | – | – | Increase vs. untreated-UV (Human skin): +30%; Dermal elastin (Human skin): 106% |
| O=C(N[C@@H](Cc1ccc2ccccc2c1)C(=O)OCc1ccccc1)[C@H](Cc1ccc(-c2ccccc2)cc1)CP(=O)(O)CCc1ccccc1 [(I)-Q] | 83 | – | – | – |
| CCCC[C@H](NC(=O)[C@H](Cc1ccc(-c2ccccc2)cc1)CP(=O)(O)CCc1ccccc1)C(=O)OC [(I)-H] | 91 | 83 | 89 | – |
| CC[C@@H](C)[C@H](NC(=O)[C@@H](Cc1ccc(-c2ccccc2)cc1)CP(=O)(O)CCc1ccccc1)C(=O)OC(C)(C)C [(I)-T, ((R)-2-([1,1′-biphenyl]-4-ylmethyl)-3-(((2S,3R)-1-(tert-butoxy)-3-methyl-1-oxopentan-2-yl)amino)-3-oxopropyl)(phenethyl)phosphinic acid] | 75 | – | – | – |
| O=C(O)CCCNC(=O)C(Cc1ccc(-c2ccccc2)cc1)CP(=O)(O)CCc1ccccc1 (stereo not drawn) [(I)-L] | 90 | 75 | 82 | – |
| CCCCC(NC(=O)C(Cc1ccc(-c2ccccc2)cc1)CP(=O)(O)CCc1ccccc1)C(=O)O (stereo not drawn) [(I)-k, 2-(3-([1,1′-biphenyl]-4-yl)-2-((hydroxy(phenethyl)phosphoryl)methyl)propanamido)hexanoic acid] | – | – | – | Increase vs. untreated-UV (Human skin): +54%; Dermal elastin (Human skin): 125% |
| COC(=O)C(C)(C)NC(=O)C(Cc1ccc(-c2ccccc2)cc1)CP(=O)(O)CCc1ccccc1 (stereo not drawn) [(I)-V, (2-([1,1′-biphenyl]-4-ylmethyl)-3-((1-methoxy-2-methyl-1-oxopropan-2-yl)amino)-3-oxopropyl)(phenethyl)phosphinic acid] | 61 | – | – | – |
| COC(=O)[C@@H](NC(=O)[C@H](Cc1ccc(-c2ccccc2)cc1)CP(=O)(O)CCc1ccccc1)C1CCCCC1 [(I)-S, ((S)-2-([1,1′-biphenyl]-4-ylmethyl)-3-(((S)-1-cyclohexyl-2-methoxy-2-oxoethyl)amino)-3-oxopropyl)(phenethyl)phosphinic acid] | 82 | – | – | – |
| CC(C)C[C@H](NC(=O)[C@H](Cc1ccc(-c2ccccc2)cc1)CP(=O)(O)CCc1ccccc1)C(=O)OC(C)(C)C [(I)-F] | 91 | 73 | 82 | – |
| CC[C@@H](C)[C@H](NC(=O)[C@H](Cc1ccc(-c2ccccc2)cc1)CP(=O)(O)CCc1ccccc1)C(=O)OC(C)(C)C [(I)-U, ((S)-2-([1,1′-biphenyl]-4-ylmethyl)-3-(((2S,3R)-1-(tert-butoxy)-3-methyl-1-oxopentan-2-yl)amino)-3-oxopropyl)(phenethyl)phosphinic acid] | 72 | – | – | – |
| COC(=O)[C@H](Cc1csc2ccccc12)NC(=O)[C@H](Cc1ccc(-c2ccccc2)cc1)CP(=O)(O)CCc1ccccc1 [(I)-A] | 92 | 75 | 82 | – |
| CC(C)(C)OC(=O)[C@H](Cc1cn(C(=O)OC(C)(C)C)c2ccccc12)NC(=O)C(Cc1ccc(-c2ccccc2)cc1)CP(=O)(O)CCc1ccccc1 (stereo partly drawn) [(I)-R] | 82 | – | – | – |
| C[C@H](NC(=O)[C@H](Cc1ccc(-c2ccccc2)cc1)CP(=O)(O)CCc1ccccc1)C(=O)O [(I)-J] | 90 | 93 | 94 | – |
| CCC(C)[C@H](NC(=O)[C@H](Cc1ccc(-c2ccccc2)cc1)CP(=O)(O)CCc1ccccc1)C(=O)O (stereo partly drawn) [(I)-B] | 92 | 94 | 94 | – |
| COC(=O)[C@H](CCNC(=O)OC(C)(C)C)NC(=O)[C@@H](Cc1ccc(-c2ccccc2)cc1)CP(=O)(O)CCc1ccccc1 [(I)-D] | 91 | 85 | 90 | – |
| CCC(C)C(NC(=O)C(Cc1ccc(-c2ccccc2)cc1)CP(=O)(O)CCc1ccccc1)C(=O)O (stereo not drawn) [(I)-e, 2-(3-([1,1′-biphenyl]-4-yl)-2-((hydroxy(phenethyl)phosphoryl)methyl)propanamido)-3-methylpentanoic acid] | – | – | – | % protection of elastin fiber network degradation (MMP-12 [2]; 0.05 μM): 12.44%; % protection of elastin fiber network degradation (MMP-12 [2]; 1 μM): 68.17%; % protection of elastin fiber network degradation (MMP-12 [2]; 20 μM): 83.73% |
| O=C(N[C@@H](Cc1ccc2ccccc2c1)C(=O)O)[C@@H](Cc1ccc(-c2ccccc2)cc1)CP(=O)(O)CCc1ccccc1 [(I)-G] | 91 | 78 | 85 | – |
| NC(=O)C[C@H](NC(=O)[C@H](Cc1ccc(-c2ccccc2)cc1)CP(=O)(O)CCc1ccccc1)C(=O)O [(I)-O] | 88 | – | – | – |
| NC(=O)C[C@H](NC(=O)[C@@H](Cc1ccc(-c2ccccc2)cc1)CP(=O)(O)CCc1ccccc1)C(=O)O [(I)-I] | 90 | 84 | 89 | – |
| O=C(NC(Cc1c[nH]c2ccccc12)C(=O)O)C(Cc1ccc(-c2ccccc2)cc1)CP(=O)(O)CCc1ccccc1.O=C(O)C(F)(F)F (stereo not drawn) [(I)-c, (3-([1,1′-biphenyl]-4-yl)-2-((hydroxy(phenethyl)phosphoryl)methyl)propanoyl)tryptophan compound with 2,2,2-trifluoroacetic acid (1:1)] | – | – | – | Increase vs. untreated-UV (Human skin): +52%; Dermal elastin (Human skin): 123% |
| CC[C@H](NC(=O)[C@H](Cc1ccc(-c2ccccc2)cc1)CP(=O)(O)CCc1ccccc1)C(=O)OC(C)(C)C [(I)-P] | 88 | – | – | – |
| O=C(N[C@@H](Cc1csc2ccccc12)C(=O)O)[C@@H](Cc1ccc(-c2ccccc2)cc1)CP(=O)(O)CCc1ccccc1 [(I)-M] | 89 | 52 | 64 | – |
| O=C(N[C@@H](Cc1c[nH]c2ccccc12)C(=O)O)[C@H](Cc1ccc(-c2ccccc2)cc1)CP(=O)(O)CCc1ccccc1 [(I)-C] | 92 | 93 | 94 | – |
| O=C(N[C@@H](Cc1c[nH]c2ccccc12)C(=O)O)[C@@H](Cc1ccc(-c2ccccc2)cc1)CP(=O)(O)CCc1ccccc1 [(I)-K] | 90 | 69 | 79 | – |
| CCCC[C@H](NC(=O)[C@@H](Cc1ccc(-c2ccccc2)cc1)CP(=O)(O)CCc1ccccc1)C(=O)O [(I)-N] | 89 | – | – | – |
